In patent publication US20230085307A1, “PYRIDAZINONE COMPOUND AND HERBICIDE” (NISSAN CHEMICAL CORPORATION, priority 2019, published 2023):

Tests used:
lambsquarters [1] = test: Test Example 4: herbicidal effect by soil treatment (Table 19, symbol O); type: in vivo, lambsquarters (Chenopodium album); details: amount of applied herbicide 320 g/ha
How it was run: (§1)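 Seeds were sown in sterilized diluvial soil and covered with about 1.5 cm of soil. An emulsion formulation diluted with water to a predetermined herbicide amount was sprayed evenly onto the soil surface. Plants grew in a greenhouse at 25° C. to 30° C., and the effect was scored three weeks after application using criteria from an earlier test.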

velvetleaf [2] = test: Test Example 5: herbicidal effect by foliage application, plastic box (Table 20, symbol M); type: in vivo, velvetleaf (Abutilon theophrasti); details: foliage application, 320 g/ha, three weeks after application
How it was run: (§2)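 Plants sown in sterilized diluvial soil and grown 14 days in a greenhouse at 25° C to 30° C, then sprayed on the foliage with the compound's emulsion diluted in water to a predetermined herbicide amount. Injury to weeds and crops scored three weeks after application on a visual rating scale.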

persian speedwell = test: Test Example 5: herbicidal effect by foliage application, plastic box (Table 20, symbol R); type: in vivo, Persian speedwell (Veronica persica); details: foliage application, 320 g/ha, three weeks after application
How it was run: as §2

barnyard grass [3] = test: Test Example 4: herbicidal effect by soil treatment (Table 19, symbol H); type: in vivo, barnyard grass (Echinochloa crus-galli); details: amount of applied herbicide 320 g/ha
How it was run: as §1

green foxtail [4] = test: Test Example 4: herbicidal effect by soil treatment (Table 19, symbol G); type: in vivo, green foxtail (Setaria viridis); details: amount of applied herbicide 320 g/ha
How it was run: as §1

Italian ryegrass [5] = test: Test Example 5: herbicidal effect by foliage application, plastic box (Table 20, symbol K); type: in vivo, Italian ryegrass (Lolium multiflorum); details: foliage application, 320 g/ha, three weeks after application
How it was run: as §2

southern crabgrass [6] = test: Test Example 5: herbicidal effect by foliage application, plastic box (Table 20, symbol F); type: in vivo, southern crabgrass (Digitaria ciliaris); details: foliage application, 320 g/ha, three weeks after application
How it was run: as §2

false cleavers = test: Test Example 4: herbicidal effect by soil treatment (Table 19, symbol Q); type: in vivo, false cleavers (Galium spurium); details: amount of applied herbicide 320 g/ha
Excerpt: [Test Example 4] Herbicidal Effect Test by Soil Treatment
Sterilized diluvial soil was placed in a plastic box having a length of 21 cm, a width of 13 cm, and a depth of 7 cm. The seeds of each of southern crabgrass, green foxtail, barnyard grass, wild oat, blackgrass, Italian ryegrass, windgrass, velvetleaf, redroot pigweed, lambsquarters, chickweed, false cleavers, persian speedwell, corn, soybean, rice, wheat, beet, and rapeseed were sowed in a spot-like manner and covered with the soil having a thickness of about 1.5 cm. Subsequently, the emulsion agent of the compound of the present invention prepared according to Formulation Example 2 was diluted with water so as to achieve a predetermined herbicide amount, and the diluted emulsion agent was uniformly applied to the surface of the soil with a small-sized spray. The plastic box was placed in a greenhouse at 25° C. to 30° C. for growth of the plants. Three weeks after the herbicide application, the effect of the herbicide on each plant was evaluated according to the criteria of Test Example 1.

Chinese sprangletop = test: Test Example 3: herbicidal effect by foliage application, Wagner pot (Table 18, symbol D); type: in vivo, chinese sprangletop (Leptochloa chinensis)
How it was run: (§3)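 Plants were sown in alluvial soil held under 0.1–0.5 cm standing water and grown 14 days in a greenhouse at 25–30 °C. An emulsifiable formulation, water-diluted to the set dose, was then sprayed onto the foliage, and effects were scored three weeks later using previously defined criteria.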

Italian ryegrass [7] = test: Test Example 4: herbicidal effect by soil treatment (Table 19, symbol K); type: in vivo, Italian ryegrass (Lolium multiflorum); details: amount of applied herbicide 320 g/ha
How it was run: as §1

windgrass [8] = test: Test Example 4: herbicidal effect by soil treatment (Table 19, symbol L); type: in vivo, windgrass (Apera spica-venti); details: amount of applied herbicide 320 g/ha
How it was run: as §1

chickweed = test: Test Example 5: herbicidal effect by foliage application, plastic box (Table 20, symbol P); type: in vivo, common chickweed (Stellaria media); details: foliage application, 320 g/ha, three weeks after application
How it was run: as §2

velvetleaf [9] = test: Test Example 4: herbicidal effect by soil treatment (Table 19, symbol M); type: in vivo, velvetleaf (Abutilon theophrasti); details: amount of applied herbicide 320 g/ha
How it was run: as §1

redroot pigweed [10] = test: Test Example 5: herbicidal effect by foliage application, plastic box (Table 20, symbol N); type: in vivo, redroot pigweed (Amaranthus retroflexus); details: foliage application, 320 g/ha, three weeks after application
How it was run: as §2

green foxtail [11] = test: Test Example 5: herbicidal effect by foliage application, plastic box (Table 20, symbol G); type: in vivo, green foxtail (Setaria viridis); details: foliage application, 320 g/ha, three weeks after application
How it was run: as §2

barnyard grass [12] = test: Test Example 5: herbicidal effect by foliage application, plastic box (Table 20, symbol H); type: in vivo, barnyard grass (Echinochloa crus-galli); details: foliage application, 320 g/ha, three weeks after application
How it was run: as §2

wild oat [13] = test: Test Example 5: herbicidal effect by foliage application, plastic box (Table 20, symbol I); type: in vivo, wild oat (Avena fatua); details: foliage application, 320 g/ha, three weeks after application
How it was run: as §2

redroot pigweed [14] = test: Test Example 4: herbicidal effect by soil treatment (Table 19, symbol N); type: in vivo, redroot pigweed (Amaranthus retroflexus); details: amount of applied herbicide 320 g/ha
How it was run: as §1

southern crabgrass [15] = test: Test Example 4: herbicidal effect by soil treatment (Table 19, symbol F); type: in vivo, southern crabgrass (Digitaria ciliaris); details: amount of applied herbicide 320 g/ha
How it was run: as §1

windgrass [16] = test: Test Example 5: herbicidal effect by foliage application, plastic box (Table 20, symbol L); type: in vivo, windgrass (Apera spica-venti); details: foliage application, 320 g/ha, three weeks after application
How it was run: as §2

rice flat sedge = test: Test Example 3: herbicidal effect by foliage application, Wagner pot (Table 18, symbol E); type: in vivo, rice flat sedge (Cyperus iria)
How it was run: as §3

blackgrass [17] = test: Test Example 5: herbicidal effect by foliage application, plastic box (Table 20, symbol J); type: in vivo, blackgrass (Alopecurus myosuroides); details: foliage application, 320 g/ha, three weeks after application
How it was run: as §2

barnyard grass [18] = test: Test Example 3: herbicidal effect by foliage application, Wagner pot (Table 18, symbol H); type: in vivo, barnyard grass (Echinochloa crus-galli)
How it was run: as §3

lambsquarters [19] = test: Test Example 5: herbicidal effect by foliage application, plastic box (Table 20, symbol O); type: in vivo, lambsquarters (Chenopodium album); details: foliage application, 320 g/ha, three weeks after application
How it was run: as §2

blackgrass [20] = test: Test Example 4: herbicidal effect by soil treatment (Table 19, symbol J); type: in vivo, blackgrass (Alopecurus myosuroides); details: amount of applied herbicide 320 g/ha
How it was run: as §1

wild oat [21] = test: Test Example 4: herbicidal effect by soil treatment (Table 19, symbol I); type: in vivo, wild oat (Avena fatua); details: amount of applied herbicide 320 g/ha
How it was run: as §1

[22] = amount of applied herbicide 320 g/ha

For Cn1ncc(O)c(-c2c(-c3ccc(F)cc3)sc3ccccc23)c1=O [1-001], the “herbicidal effect rating, O: lambsquarters” value (lambsquarters [1]) was 0 (Herbicidal rate of 5% or less (almost no effect)), the “herbicidal effect grade, M: velvetleaf” value (velvetleaf [2]) was 4 (Herbicidal rate of 70% or more and less than 90%) and the “herbicidal effect grade, R: persian speedwell” value (persian speedwell) was 3 (Herbicidal rate of 40% or more and less than 70%). For the same molecule, the “herbicidal effect rating, H: barnyard grass” value (barnyard grass [3]) was 0 (Herbicidal rate of 5% or less (almost no effect)), the “herbicidal effect rating, G: green foxtail” value (green foxtail [4]) was 0 (Herbicidal rate of 5% or less (almost no effect)) and the “herbicidal effect grade, K: Italian ryegrass” value (Italian ryegrass [5]) was 0 (Herbicidal rate of 5% or less (almost no effect)). For the same molecule, the “herbicidal effect grade, F: southern crabgrass” value (southern crabgrass [6]) was 0 (Herbicidal rate of 5% or less (almost no effect)), the “herbicidal effect rating, Q: false cleavers” value (false cleavers) was 0 (Herbicidal rate of 5% or less (almost no effect)) and the “herbicidal effect on D (Chinese sprangletop), rating 0-5” value (Chinese sprangletop; 320 g/ha) was 0 (Herbicidal rate of 5% or less (almost no effect)). For the same molecule, the “herbicidal effect rating, K: Italian ryegrass” value (Italian ryegrass [7]) was 0 (Herbicidal rate of 5% or less (almost no effect)), the “herbicidal effect rating, L: windgrass” value (windgrass [8]) was 0 (Herbicidal rate of 5% or less (almost no effect)) and the “herbicidal effect grade, P: chickweed” value (chickweed) was 5 (Herbicidal rate of 90% or more (almost completely withered)). For the same molecule, the “herbicidal effect rating, M: velvetleaf” value (velvetleaf [9]) was 0 (Herbicidal rate of 5% or less (almost no effect)), the “herbicidal effect grade, N: redroot pigweed” value (redroot pigweed [10]) was 1 (Herbicidal rate of 5% or more and less than 20%) and the “herbicidal effect grade, G: green foxtail” value (green foxtail [11]) was 0 (Herbicidal rate of 5% or less (almost no effect)). The “herbicidal effect grade, H: barnyard grass” value (barnyard grass [12]) was 0 (Herbicidal rate of 5% or less (almost no effect)), the “herbicidal effect grade, I: wild oat” value (wild oat [13]) was 0 (Herbicidal rate of 5% or less (almost no effect)) and the “herbicidal effect rating, N: redroot pigweed” value (redroot pigweed [14]) was 4 (Herbicidal rate of 70% or more and less than 90%). For the same molecule, the “herbicidal effect rating, F: southern crabgrass” value (southern crabgrass [15]) was 0 (Herbicidal rate of 5% or less (almost no effect)), the “herbicidal effect grade, L: windgrass” value (windgrass [16]) was 0 (Herbicidal rate of 5% or less (almost no effect)) and the “herbicidal effect on E (rice flat sedge), rating 0-5” value (rice flat sedge; 320 g/ha) was 5 (Herbicidal rate of 90% or more (almost completely withered)). The “herbicidal effect grade, J: blackgrass” value (blackgrass [17]) was 0 (Herbicidal rate of 5% or less (almost no effect)), the “herbicidal effect on H (barnyard grass), rating 0-5” value (barnyard grass [18]; 320 g/ha) was 3 (Herbicidal rate of 40% or more and less than 70%) and the “herbicidal effect grade, O: lambsquarters” value (lambsquarters [19]) was 2 (Herbicidal rate of 20% or more and less than 40%). For the same molecule, the “herbicidal effect rating, J: blackgrass” value (blackgrass [20]) was 0 (Herbicidal rate of 5% or less (almost no effect)) and the “herbicidal effect rating, I: wild oat” value (wild oat [21]) was 0 (Herbicidal rate of 5% or less (almost no effect)).
With CSCCSc1ccc(-c2sc3ccc(F)cc3c2-c2c(O)c(C)nn(C)c2=O)cc1 [2-421] the “herbicidal effect, O: lambsquarters” value (lambsquarters [1]) was 1 (Herbicidal rate of 5% or more and less than 20%), the “M: velvetleaf, herbicidal effect grade” value (velvetleaf [2]) was 3 (Herbicidal rate of 40% or more and less than 70%) and the “R: persian speedwell, herbicidal effect grade” value (persian speedwell) was 5 (Herbicidal rate of 90% or more (almost completely withered)). The “herbicidal effect, H: barnyard grass” value (barnyard grass [3]) was 1 (Herbicidal rate of 5% or more and less than 20%), the “herbicidal effect, G: green foxtail” value (green foxtail [4]) was 3 (Herbicidal rate of 40% or more and less than 70%) and the “K: Italian ryegrass, herbicidal effect grade” value (Italian ryegrass [5]) was 3 (Herbicidal rate of 40% or more and less than 70%). The “F: southern crabgrass, herbicidal effect grade” value (southern crabgrass [6]) was 5 (Herbicidal rate of 90% or more (almost completely withered)), the “herbicidal effect, Q: false cleavers” value (false cleavers) was 0 (Herbicidal rate of 5% or less (almost no effect)) and the “herbicidal effect on D: Chinese sprangletop” value (Chinese sprangletop; [22]) was 2 (Herbicidal rate of 20% or more and less than 40%). For the same molecule, the “herbicidal effect, K: Italian ryegrass” value (Italian ryegrass [7]) was 0 (Herbicidal rate of 5% or less (almost no effect)), the “herbicidal effect, L: windgrass” value (windgrass [8]) was 0 (Herbicidal rate of 5% or less (almost no effect)) and the “P: chickweed, herbicidal effect grade” value (chickweed) was 5 (Herbicidal rate of 90% or more (almost completely withered)). For the same molecule, the “herbicidal effect, M: velvetleaf” value (velvetleaf [9]) was 2 (Herbicidal rate of 20% or more and less than 40%), the “N: redroot pigweed, herbicidal effect grade” value (redroot pigweed [10]) was 5 (Herbicidal rate of 90% or more (almost completely withered)) and the “G: green foxtail, herbicidal effect grade” value (green foxtail [11]) was 5 (Herbicidal rate of 90% or more (almost completely withered)). For the same molecule, the “H: barnyard grass, herbicidal effect grade” value (barnyard grass [12]) was 5 (Herbicidal rate of 90% or more (almost completely withered)), the “I: wild oat, herbicidal effect grade” value (wild oat [13]) was 5 (Herbicidal rate of 90% or more (almost completely withered)) and the “herbicidal effect, N: redroot pigweed” value (redroot pigweed [14]) was 5 (Herbicidal rate of 90% or more (almost completely withered)). For the same molecule, the “herbicidal effect, F: southern crabgrass” value (southern crabgrass [15]) was 2 (Herbicidal rate of 20% or more and less than 40%), the “L: windgrass, herbicidal effect grade” value (windgrass [16]) was 5 (Herbicidal rate of 90% or more (almost completely withered)) and the “herbicidal effect on E: rice flat sedge” value (rice flat sedge; [22]) was 5 (Herbicidal rate of 90% or more (almost completely withered)). The “J: blackgrass, herbicidal effect grade” value (blackgrass [17]) was 4 (Herbicidal rate of 70% or more and less than 90%), the “herbicidal effect on H: barnyard grass” value (barnyard grass [18]; [22]) was 5 (Herbicidal rate of 90% or more (almost completely withered)) and the “O: lambsquarters, herbicidal effect grade” value (lambsquarters [19]) was 4 (Herbicidal rate of 70% or more and less than 90%). For the same molecule, the “herbicidal effect, J: blackgrass” value (blackgrass [20]) was 0 (Herbicidal rate of 5% or less (almost no effect)) and the “herbicidal effect, I: wild oat” value (wild oat [21]) was 0 (Herbicidal rate of 5% or less (almost no effect)).
